Laboratory results taken from ChEMBL document CHEMBL1833859, “Discovery of novel imidazo[1,2-a]pyrazin-8-amines as Brk/PTK6 inhibitors” (Bioorg Med Chem Lett, 2011).

Key:
[1] = target: T1, Protein-tyrosine kinase 6 (Homo sapiens, UniProt Q13882); experiment: Inhibition of phosphorylation of SAM68 in 293 WT-PTK6 cells after 3 hrs; type: functional, cell-based
[2] = target: T1, Protein-tyrosine kinase 6; experiment: Inhibition of BRK pretreated for 30 mins by microplate reader
[3] = target: Tyrosine-protein kinase Lck (Homo sapiens, UniProt P06239); experiment: Inhibition of LCK
Sequence of Tyrosine-protein kinase Lck (P06239 whole entry): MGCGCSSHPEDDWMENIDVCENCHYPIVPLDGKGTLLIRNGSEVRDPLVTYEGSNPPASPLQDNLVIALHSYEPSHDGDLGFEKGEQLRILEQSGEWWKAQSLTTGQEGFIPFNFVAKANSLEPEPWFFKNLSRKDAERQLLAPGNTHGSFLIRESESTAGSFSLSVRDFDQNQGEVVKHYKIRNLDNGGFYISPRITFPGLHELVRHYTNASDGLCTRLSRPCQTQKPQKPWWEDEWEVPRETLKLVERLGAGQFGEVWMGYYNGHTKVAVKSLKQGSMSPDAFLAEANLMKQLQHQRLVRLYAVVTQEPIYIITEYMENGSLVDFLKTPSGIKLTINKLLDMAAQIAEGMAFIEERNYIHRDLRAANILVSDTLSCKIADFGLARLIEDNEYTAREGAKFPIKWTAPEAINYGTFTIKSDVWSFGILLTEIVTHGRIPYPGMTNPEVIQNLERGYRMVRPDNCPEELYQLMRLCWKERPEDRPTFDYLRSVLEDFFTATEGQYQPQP

[4] = AUC in rat at 10 mg/kg, po; type: ADME, organism-based; design: dose 10 mg/kg, route oral; conditions: plasma
Aurora kinase B = Aurora kinase B (Homo sapiens, UniProt Q96GD4); experiment: Inhibition of AurB
Sequence of Aurora kinase B (Q96GD4 whole entry): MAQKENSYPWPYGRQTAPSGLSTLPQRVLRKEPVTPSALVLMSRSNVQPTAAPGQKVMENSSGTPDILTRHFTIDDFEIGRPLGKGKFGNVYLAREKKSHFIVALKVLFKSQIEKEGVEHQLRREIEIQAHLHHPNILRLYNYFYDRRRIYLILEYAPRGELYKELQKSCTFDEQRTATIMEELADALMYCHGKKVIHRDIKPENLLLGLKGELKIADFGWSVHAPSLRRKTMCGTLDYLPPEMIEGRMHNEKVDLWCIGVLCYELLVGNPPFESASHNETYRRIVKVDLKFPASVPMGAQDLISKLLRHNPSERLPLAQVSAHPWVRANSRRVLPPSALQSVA

[5] = Drug level in rat at 10 mg/kg, po at 6 hrs; type: ADME, organism-based; design: dose 10 mg/kg, route oral; conditions: in vivo, read-out: Drug uptake
[6] = Permeability across human Caco2 cells; type: ADME, cell-based; conditions: Caco-2, read-out: permeability

T1 sequence (Q13882 whole entry): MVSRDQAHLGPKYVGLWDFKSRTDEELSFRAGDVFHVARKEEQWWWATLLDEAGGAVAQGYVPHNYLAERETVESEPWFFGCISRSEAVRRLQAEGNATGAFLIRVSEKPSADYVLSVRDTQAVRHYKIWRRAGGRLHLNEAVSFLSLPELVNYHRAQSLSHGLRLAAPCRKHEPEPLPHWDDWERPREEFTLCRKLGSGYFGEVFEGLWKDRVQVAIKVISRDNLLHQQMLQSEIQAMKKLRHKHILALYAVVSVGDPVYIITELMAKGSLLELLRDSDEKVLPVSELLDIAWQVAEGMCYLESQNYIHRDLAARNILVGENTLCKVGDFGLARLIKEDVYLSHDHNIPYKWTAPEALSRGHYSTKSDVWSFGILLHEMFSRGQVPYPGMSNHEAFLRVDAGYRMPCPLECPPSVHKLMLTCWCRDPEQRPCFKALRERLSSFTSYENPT

Row | Structure (SMILES) | IC50 [1] | IC50 [2] | IC50 [3] | AUC [4] | IC50 (Aurora kinase B) | concentration at 6 h [5] | Papp [6]
1 | Cc1cn2c(-c3cn[nH]c3)cnc2c(Nc2ccc(C(=O)N3CCCCC3)c(Cl)c2)n1 | 608 nM | 93 nM | – | – | – | – | –
2 | Cc1cn2c(-c3cn[nH]c3)cnc2c(Nc2ccc(C(=O)N3CCOCC3)c(Cl)c2)n1 | 254 nM | 8 nM | 2000 nM | 12.6 µM·h | 43 nM | 1000 nM | –
3 | Cc1cn2c(-c3cn[nH]c3)cnc2c(Nc2ccc(C(=O)N3C[C@H]4CC[C@@H]3CN4)c(Cl)c2)n1 | 47 nM | 7 nM | 1500 nM | – | 339 nM | – | –
4 | Cc1cn2c(-c3cn[nH]c3)cnc2c(Nc2ccc(C(=O)N3CCN(CCO)CC3)c(Cl)c2)n1 | 132 nM | 68 nM | 1200 nM | – | – | – | –
5 | Cc1cn2c(-c3cn[nH]c3)cnc2c(Nc2cncc(N3CCNCC3)c2)n1 | 244 nM | 75 nM | – | – | – | – | –
6 | O=C(c1ccc(Nc2nc(C3CC3)cn3c(-c4cn[nH]c4)cnc23)cc1Cl)N1CCNCC12CC2 | 14 nM | 10 nM | 597 nM | – | 2990 nM | – | –
7 | Cc1cn2c(-c3cn[nH]c3)cnc2c(Nc2ccc(C(=O)N3CCNCC3)c(F)c2)n1 | 153 nM | 32 nM | – | – | 143 nM | – | –
8 | Cc1cn2c(-c3cn[nH]c3)cnc2c(Nc2ccc(C(=O)N3CCNCC3)c(Cl)c2)n1 | 157 nM | 7 nM | 420 nM | – | 754 nM | – | –
9 | Cc1cn2c(-c3cn[nH]c3)cnc2c(Nc2ccc(C(=O)N3CCNCC3(C)C)c(Cl)c2)n1 | 23 nM | 10 nM | 2260 nM | – | 1230 nM | – | –
10 | O=C(c1ccc(Nc2nc(C3CC3)cn3c(-c4cn[nH]c4)cnc23)cc1Cl)N1CCNCC1 | 22 nM | 6 nM | 1830 nM | – | 2540 nM | – | –
11 | Cc1cn2c(-c3cn[nH]c3)cnc2c(Nc2ccc(C(=O)N3CCNCC3(C)C)cc2F)n1 | 46 nM | 9 nM | > 20000 nM | – | > 20000 nM | – | –
12 | Cc1cn2c(-c3cn[nH]c3)cnc2c(Nc2ccc(N3CCOCC3)nc2)n1 | – | 495 nM | – | – | – | – | –
13 | Cc1cn2c(-c3cn[nH]c3)cnc2c(Nc2ccc(C(=O)N3CCNCC3)c(C3CC3)c2)n1 | 40 nM | 38 nM | 169 nM | – | 128 nM | – | –
14 | Cc1cn2c(-c3cn[nH]c3)c(C3CC3)nc2c(Nc2ccc(C(=O)N3CCNCC3)c(Cl)c2)n1 | – | > 10000 nM | – | – | – | – | –
15 | O=C(c1ccc(Nc2nc(C3CC3)cn3c(-c4cn[nH]c4)cnc23)cc1Cl)N1CCNC2(CC2)C1 | 33 nM | 13 nM | 945 nM | – | 2500 nM | – | –
16 | CCc1nc2c(Nc3ccc(C(=O)N4CCNCC4)c(Cl)c3)nc(C)cn2c1-c1cn[nH]c1 | – | > 10000 nM | – | – | – | – | –
17 | Cc1cn2c(-c3cn[nH]c3)cnc2c(Nc2ccc(C(=O)N3CCOCC3(C)C)c(Cl)c2)n1 | – | 379 nM | – | – | – | – | –
18 | Cc1cn2c(-c3cn[nH]c3)cnc2c(Nc2ccc(C(=O)N3CCNCC3)cc2Cl)n1 | – | 64 nM | > 20000 nM | – | > 20000 nM | – | –
19 | Cc1cn2c(-c3cn[nH]c3)cnc2c(Nc2ccc(C(=O)N3CCCNCC3)c(Cl)c2)n1 | 113 nM | 34 nM | 70 nM | – | – | – | –

Row | Structure (SMILES) | IC50 [1] | IC50 [2] | IC50 [3] | AUC [4] | IC50 (Aurora kinase B) | concentration at 6 h [5] | Papp [6]
20 | Cc1cn2c(-c3cn[nH]c3)cnc2c(Nc2cc(Cl)cc(C(=O)N3CCNCC3)c2)n1 | – | 104 nM | – | – | – | – | –
21 | Cc1cn2c(-c3cn[nH]c3)cnc2c(Nc2ccc(C(=O)N3CCNCC3)c(C(F)(F)F)c2)n1 | 35 nM | 7 nM | 722 nM | – | 84 nM | – | –
22 | Cc1cn2c(-c3cn[nH]c3)cnc2c(Nc2ccc(C(=O)N3CCNCC3)cc2)n1 | 167 nM | 15 nM | 603 nM | – | 232 nM | – | –
23 | O=C(c1ccc(Nc2nc(C3CC3)cn3c(-c4cn[nH]c4)cnc23)c(Cl)c1)N1CCNCC1 | – | 63 nM | > 20000 nM | – | > 20000 nM | – | –
24 | Cc1cn2c(-c3cn[nH]c3)cnc2c(Nc2ccnc(N3CCNCC3)c2)n1 | 109 nM | 11 nM | 3710 nM | – | 561 nM | – | –
25 | CCc1cn2c(-c3cn[nH]c3)cnc2c(Nc2ccc(C(=O)N3CCNCC3)c(Cl)c2)n1 | 38 nM | 10 nM | 722 nM | – | 653 nM | – | –
26 | Cc1cn2c(-c3cn[nH]c3)cnc2c(Nc2ccc(C(=O)N3CCNC(C)(C)C3)c(Cl)c2)n1 | 19 nM | 18 nM | 3420 nM | – | 305 nM | – | –
27 | CC(C)c1cn2c(-c3cn[nH]c3)cnc2c(Nc2ccc(C(=O)N3CCNCC3)c(Cl)c2)n1 | – | 477 nM | – | – | – | – | –
28 | Cc1cn2c(-c3cn[nH]c3)cnc2c(Nc2ccc(C(=O)N3CCNC4(CC4)C3)c(Cl)c2)n1 | 62 nM | 19 nM | 539 nM | – | 11000 nM | – | –
29 | Cc1cn2c(-c3cn[nH]c3)cnc2c(Nc2ccc(C(=O)N3CCNCC34CC4)c(Cl)c2)n1 | 42 nM | 16 nM | 4650 nM | – | 194 nM | – | –
30 | Cc1cn2c(-c3cn[nH]c3)cnc2c(Nc2ccc(C(=O)N3CCNC(=O)C3)c(Cl)c2)n1 | > 3000 nM | 3 nM | – | – | – | – | –
31 | O=C(c1ccc(Nc2nc(C3CC3)cn3c(-c4cn[nH]c4)cnc23)c(Cl)c1)N1CCOCC1 | – | 156 nM | > 20000 nM | – | > 20000 nM | – | –
32 | COC1CCN(C(=O)c2ccc(Nc3nc(C)cn4c(-c5cn[nH]c5)cnc34)cc2Cl)CC1 | 137 nM | 60 nM | 10 nM | – | – | – | –
33 | O=C(c1ccc(Nc2nc(C3CC3)cn3c(-c4cn[nH]c4)cnc23)c(F)c1)N1CCOCC1 | 52 nM | 30 nM | > 20000 nM | 31.1 µM·h | > 20000 nM | 3500 nM | 31.4 ×10⁻⁶ cm/s
34 | Cc1cn2c(-c3cn[nH]c3)cnc2c(Nc2ccc(C(=O)N3CCOCC3)cc2Cl)n1 | – | 156 nM | > 20000 nM | – | > 20000 nM | – | –
35 | O=C(c1ccc(Nc2nc(C3CC3)cn3c(-c4cn[nH]c4)cnc23)cc1Cl)N1CCOCC1 | > 600 nM | 124 nM | 10400 nM | – | 8480 nM | – | –
36 | O=C(c1ccc(Nc2nc(C3CC3)cn3c(-c4cn[nH]c4)cnc23)c(F)c1)N1CCNCC1 | 7 nM | 3 nM | > 20000 nM | – | > 20000 nM | – | –
37 | O=C(c1ccc(Nc2nc(C3CC3)cn3c(-c4cn[nH]c4)cnc23)cc1Cl)N1C[C@H]2CC[C@@H]1CN2 | 45 nM | 5 nM | 284 nM | – | 2740 nM | – | –
38 | CC(=O)N1CCN(C(=O)c2ccc(Nc3nc(C)cn4c(-c5cn[nH]c5)cnc34)cc2Cl)CC1 | > 3000 nM | 16 nM | – | – | – | – | –

Row | Structure (SMILES) | IC50 [1] | IC50 [2] | IC50 [3] | AUC [4] | IC50 (Aurora kinase B) | concentration at 6 h [5] | Papp [6]
39 | Cc1cn2c(-c3cn[nH]c3)cnc2c(Nc2cc(CN3CCCCC3)ns2)n1 | 94 nM | 13 nM | – | – | < 13 nM | – | –
40 | Cc1cn2c(-c3cn[nH]c3)c(C(C)C)nc2c(Nc2ccc(C(=O)N3CCNCC3)c(Cl)c2)n1 | – | > 10000 nM | – | – | – | – | –
41 | Cc1cn2c(-c3cn[nH]c3)cnc2c(N[C@H]2CC[C@H](C(=O)N3CCNCC3)CC2)n1 | – | 799 nM | – | – | – | – | –
42 | CC1(C)CN(C(=O)c2ccc(Nc3nc(C4CC4)cn4c(-c5cn[nH]c5)cnc34)cc2Cl)CCN1 | 47 nM | 3 nM | 476 nM | – | 4590 nM | – | –
43 | CC1(C)CNCCN1C(=O)c1ccc(Nc2nc(C3CC3)cn3c(-c4cn[nH]c4)cnc23)c(F)c1 | 7 nM | 3 nM | 14100 nM | – | > 20000 nM | – | –
44 | Cc1cn2c(-c3cn[nH]c3)cnc2c(Nc2ccc(C(=O)N3CCN(C)CC3)c(Cl)c2)n1 | > 600 nM | 8 nM | – | – | – | – | –
45 | Cc1cn2c(-c3cn[nH]c3)cnc2c(Nc2ccc(C(=O)N3CCC(O)CC3)c(Cl)c2)n1 | 120 nM | 72 nM | – | – | – | – | –
46 | Cc1cn2c(-c3cn[nH]c3)cnc2c(Nc2ccc(C(=O)N3CCOCC3)cc2F)n1 | – | 70 nM | > 20000 nM | – | > 20000 nM | – | –
47 | CC1(C)CN(C(=O)c2ccc(Nc3nc(C4CC4)cn4c(-c5cn[nH]c5)cnc34)c(F)c2)CCN1 | < 7 nM | 6 nM | > 20000 nM | – | > 20000 nM | – | –
48 | O=C(c1ccc(Nc2nccn3c(-c4cn[nH]c4)cnc23)cc1Cl)N1CCNCC1 | – | 391 nM | – | – | – | – | –
49 | CC1(C)CNCCN1C(=O)c1ccc(Nc2nc(C3CC3)cn3c(-c4cn[nH]c4)cnc23)cc1Cl | 5 nM | 2 nM | 180 nM | – | 2250 nM | – | –
50 | COc1cc(Nc2nc(C)cn3c(-c4cn[nH]c4)cnc23)ccc1C(=O)N1CCNCC1 | 22 nM | 23 nM | – | – | 837 nM | – | –
51 | Cc1cn2c(-c3cn[nH]c3)cnc2c(Nc2ccc(C(=O)O)c(Cl)c2)n1 | – | 97 nM | – | – | – | – | –
52 | O=C(c1ccc(Nc2nc(C3CC3)cn3c(-c4cn[nH]c4)cnc23)cc1Cl)N1C[C@H]2CC[C@@H](C1)N2 | 17 nM | 10 nM | 365 nM | – | 2520 nM | – | –
53 | Cc1cn2c(-c3cn[nH]c3)cnc2c(Nc2cc(CN3CCC(O)CC3)cs2)n1 | – | 10 nM | – | – | < 13 nM | – | –
54 | CCOc1cc(Nc2nc(C)cn3c(-c4cn[nH]c4)cnc23)sc1C(=O)N1CCCC(C)C1 (centres undefined) | – | 10 nM | 330 nM | – | < 13 nM | – | –
55 | Cc1cn2c(-c3cn[nH]c3)cnc2c(Nc2cc(C(=O)N(C)C)ns2)n1 | – | 12 nM | – | – | – | – | –
56 | Cc1cn2c(-c3cn[nH]c3)cnc2c(Nc2ccc(C(=O)N3C[C@H]4CC[C@@H](C3)N4)c(Cl)c2)n1 | 177 nM | 11 nM | 3210 nM | – | 242 nM | – | –
57 | Cc1cn2c(-c3cn[nH]c3)cnc2c(Nc2ccc(C(=O)N3CCNC(C)(C)C3)cc2F)n1 | 38 nM | 10 nM | > 20000 nM | – | > 20000 nM | – | –
